According to PMC3561686 (Basic & Clinical Pharmacology & Toxicology, 2012):
Where two headings read alike, the source gives them in different places.

Experiments:
[1] = for AUC ratio (prasugrel + ritonavir versus prasugrel alone): AUC0–6 hr; for AUC ratio (prasugrel + ritonavir versus prasugrel alone) / Cmax ratio (prasugrel + ritonavir versus prasugrel alone): mean ratio; for Cmax: human, in vivo, prasugrel alone session, dried blood spots, mean (S.D.)
CYP2C19 = CYP2C19 (Homo sapiens, UniProt P33261); test: CYP2C19 phenotyping: omeprazole metabolic ratio in plasma; format: in vivo; conditions: mean ratio
[2] = read-out: expected Cmax; after a 100 mg dose; cited from earlier work
human liver microsomes = conditions: cited from earlier work
CYP2C9 = CYP2C9 (Homo sapiens, UniProt P11712); conditions: mean ratio
CYP3A = conditions: cited from earlier work

CYP2C19, sequence (P33261 whole entry): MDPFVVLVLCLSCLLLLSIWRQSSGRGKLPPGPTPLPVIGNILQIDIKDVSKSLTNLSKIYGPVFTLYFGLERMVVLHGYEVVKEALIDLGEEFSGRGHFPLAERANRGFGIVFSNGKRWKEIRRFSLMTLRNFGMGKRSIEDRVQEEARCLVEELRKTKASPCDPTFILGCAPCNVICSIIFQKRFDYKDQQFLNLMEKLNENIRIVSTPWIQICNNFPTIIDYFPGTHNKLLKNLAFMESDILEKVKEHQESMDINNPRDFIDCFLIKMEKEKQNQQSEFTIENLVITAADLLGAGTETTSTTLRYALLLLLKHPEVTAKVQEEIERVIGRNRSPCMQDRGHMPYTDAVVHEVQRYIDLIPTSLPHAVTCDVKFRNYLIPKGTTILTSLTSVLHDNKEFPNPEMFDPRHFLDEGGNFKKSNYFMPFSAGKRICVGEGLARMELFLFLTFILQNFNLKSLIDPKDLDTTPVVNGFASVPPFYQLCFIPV
CYP2C9, sequence (P11712 whole entry): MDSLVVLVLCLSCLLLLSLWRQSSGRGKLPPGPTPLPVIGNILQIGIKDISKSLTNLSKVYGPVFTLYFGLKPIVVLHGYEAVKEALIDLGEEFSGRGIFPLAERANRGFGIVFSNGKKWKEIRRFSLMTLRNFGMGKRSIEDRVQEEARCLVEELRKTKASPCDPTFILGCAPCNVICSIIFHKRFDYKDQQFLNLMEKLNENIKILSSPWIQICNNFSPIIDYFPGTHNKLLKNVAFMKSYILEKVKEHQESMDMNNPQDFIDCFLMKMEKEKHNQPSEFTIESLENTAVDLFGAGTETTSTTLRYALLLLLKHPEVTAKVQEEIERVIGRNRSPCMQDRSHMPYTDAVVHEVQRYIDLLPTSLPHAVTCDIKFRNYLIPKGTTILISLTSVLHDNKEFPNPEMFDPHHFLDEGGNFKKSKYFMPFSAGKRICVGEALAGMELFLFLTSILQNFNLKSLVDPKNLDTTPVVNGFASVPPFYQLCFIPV

## COc1ccc2[nH]c([S+]([O-])Cc3ncc(C)c(OC)c3C)nc2c1 (centres unmarked) [Omeprazole, omeprazole]
[1]
  AUC ratio (prasugrel + ritonavir versus prasugrel alone): 1.25
  Cmax: 35.6 ng/mL
  Cmax ratio (prasugrel + ritonavir versus prasugrel alone): 1.54
CYP2C19
  Metabolic Ratio (OH omeprazole/omeprazole), ratio prasugrel + ritonavir versus prasugrel alone: not affected

## Cc1ncc2n1-c1ccc(Cl)cc1C(c1ccccc1F)=NC2 [Midazolam, midazolam]
[1]
  AUC ratio (prasugrel + ritonavir versus prasugrel alone): 26.5
  Cmax: 0.17 ng/mL
  Cmax ratio (prasugrel + ritonavir versus prasugrel alone): 6.1
[1]; listed as midazolam
  AUC ratio (prasugrel + ritonavir versus prasugrel alone): 26
  Cmax ratio (prasugrel + ritonavir versus prasugrel alone): 6

## CC(C)c1nc(CN(C)C(=O)N[C@H](C(=O)N[C@@H](Cc2ccccc2)C[C@H](O)[C@H](Cc2ccccc2)NC(=O)OCc2cncs2)C(C)C)cs1 [ritonavir]
[2]
  Cmax: 1000 to 2000 nM
Human liver microsomes
  Inhibition of prasugrel bioactivation: potent inhibitor

## CC(C(=O)O)c1ccc(-c2ccccc2)c(F)c1 (centres unmarked) [Flurbiprofen, flurbiprofen]
[1]
  AUC ratio (prasugrel + ritonavir versus prasugrel alone): 0.95
  Cmax: 1140 ng/mL
  Cmax ratio (prasugrel + ritonavir versus prasugrel alone): 0.98
CYP2C9
  Metabolic Ratio (OH flurbiprofen/flurbiprofen), ratio prasugrel + ritonavir versus prasugrel alone: not affected

## CC(NC(C)(C)C)C(=O)c1cccc(Cl)c1 (centres unmarked) [Bupropion, bupropion]
[1]
  Cmax: 20.9 ng/mL

## CC(=O)N1CCN(c2ccc(OCC3COC(Cn4ccnc4)(c4ccc(Cl)cc4Cl)O3)cc2)CC1 (centres unmarked) [ketoconazole]
CYP3A
  Change in prasugrel AM formation or the inhibition of platelet aggregation when prasugrel was administered with the drug: no change
